Test results reported in PMC11844072, “Novel 5,6-dichlorobenzimidazole derivatives as dual BRAFWT and BRAFV600E inhibitors: design, synthesis, anti-cancer activity and molecular dynamics simulations” (BMC Chemistry, 2025).

Tests used:
Assay in all cases: NCI 5-dose assay
Assay type in all cases: cell-based
A549/ATCC = details: Homo sapiens, Non-small cell lung cancer
Procedure: (§1) The synthesized dichlorobenzimidazoles 10a–p were assayed for their influence on divers cancer cell lines according to the method presented in the Additional file A.
(§2) 5. Screening of cytotoxic activity against a panel of sixty human tumor cell lines
(§3) The selected compounds by NCI were evaluated for their anticancer activity in a two-stage process. First, these compounds were screened against the full NCI 60 cell lines panel at a single high dose of 10 µM. Then, the output from the single dose screen is reported as a mean graph. […]
(§4) at five different minimal concentrations.
(§5) Assay protocol. The human tumor cell lines of the cancer screening panel are grown in RPMI 1640 medium containing 5% fetal bovine serum and 2 mM L-glutamine. For a typical screening experiment, cells are inoculated into 96 well microtiter plates in 100 µL at plating densities ranging from 5000 to 40,000 cells/well depending on the doubling time of individual cell lines. After cell inoculation, the microtiter plates are incubated at 37 °C, 5% CO 2, 95% air and 100% relative humidity for 24 h prior to addition of the experimental drugs.
(§6) After 24 h, two plates of each cell line are fixed in situ with TCA, to represent a measurement of the cell population for each cell line at the time of drug addition (Tz). The experimental drugs are solubilized in dimethyl sulfoxide at 400-fold the desired final maximum test concentration and stored frozen prior to use. At the time of drug addition, an aliquot of frozen concentrate is thawed and diluted to twice the desired final maximum test concentration with complete medium containing 50 µg/mL gentamicin. Additional four, 10-fold or ½ log serial dilutions are made to provide a total of five drug concentrations plus control.
(§7) Aliquots of […] of these different drug dilutions are added to the appropriate microtiter wells already containing […] of medium, resulting in the required final drug concentrations.
(§8) Following drug addition, the plates are incubated for an additional 48 h at 37 °C, 5% CO 2, 95% air, and 100% relative humidity. For adherent cells, the assay is terminated by the addition of cold TCA.
(§9) Cells are fixed in situ by the gentle addition of 50 µL of cold 50% (w/v) TCA (final concentration, 10% TCA) and incubated for 60 min at 4 °C. The supernatant is discarded, and the plates are washed five times with tap water and air dried. Sulforhodamine B (SRB) solution ([…]) at 0.4% (w/v) in 1% acetic acid is added to each well, and plates are incubated for 10 min at room temperature. After staining, unbound dye is removed by washing five times with 1% acetic acid and the plates are air dried. Bound stain is subsequently solubilized with 10 mM trizma base, and the absorbance is read on an automated plate reader at a wavelength of 515 nm. For suspension cells, the methodology is […]
(§10) the same except that the assay is terminated by fixing settled cells at the bottom of the wells by gently adding 50 µl of 80% TCA (final concentration, 16% TCA). Using the seven absorbance measurements [time zero, (Tz), control growth, (C), and test growth in the presence of drug at the five concentration levels (Ti)], the percentage growth is calculated at each of the drug concentrations […]
(§11) Percentage growth inhibition is calculated as: [(Ti Tz)/(C–Tz)] x 100 for concentrations for which Ti>/=Tz and [(Ti-Tz)/Tz] x 100 for concentrations for which Ti < Tz.
(§12) Three dose response parameters are calculated for each experimental agent. Growth […]
(§13) concentration resulting in a 50% reduction in the net protein increase (as measured by SRB staining) in control cells during the drug incubation. The drug concentration resulting in total growth inhibition (TGI) is calculated from Ti = Tz. […]
(§14) reduction in the measured protein at the end of the drug treatment as compared to that at the beginning) indicating a net loss of cells following treatment is calculated from [(Ti–Tz)/Tz] x 100 =
(§15) _50. Values are calculated for each of these three parameters if the level of activity is reached; […]

HCC-2998 = details: Homo sapiens; HCC-2998, Colon cancer
Procedure: as §1, §2, §3, §4, §5, §6, §7, §8, §9, §10, §11, §12, §13, §14, §15

HCT-116 = details: Homo sapiens; HCT-116, Colon cancer
Procedure: as §1, §2, §3, §4, §5, §6, §7, §8, §9, §10, §11, §12, §13, §14, §15

HOP-62 = details: Homo sapiens; HOP-62, Non-small cell lung cancer
Procedure: as §1, §2, §3, §4, §5, §6, §7, §8, §9, §10, §11, §12, §13, §14, §15

KM12 = details: Homo sapiens; KM12, Colon cancer
Procedure: as §1, §2, §3, §4, §5, §6, §7, §8, §9, §10, §11, §12, §13, §14, §15

LOX IMVI = details: Homo sapiens, Melanoma
Procedure: as §1, §2, §3, §4, §5, §6, §7, §8, §9, §10, §11, §12, §13, §14, §15

MCF7 = details: Homo sapiens; MCF7, Breast cancer
Procedure: as §1, §2, §3, §4, §5, §6, §7, §8, §9, §10, §11, §12, §13, §14, §15

MDA-MB-435 = details: Homo sapiens; MDA-MB-435, Melanoma
Procedure: as §1, §2, §3, §4, §5, §6, §7, §8, §9, §10, §11, §12, §13, §14, §15

NCI-H226 = details: Homo sapiens; NCI-H226, Non-small cell lung cancer
Procedure: as §1, §2, §3, §4, §5, §6, §7, §8, §9, §10, §11, §12, §13, §14, §15

NCI-H23 = details: Homo sapiens; NCI-H23, Non-small cell lung cancer
Procedure: as §1, §2, §3, §4, §5, §6, §7, §8, §9, §10, §11, §12, §13, §14, §15

NCI-H522 = details: Homo sapiens; NCI-H522, Non-small cell lung cancer
Procedure: as §1, §2, §3, §4, §5, §6, §7, §8, §9, §10, §11, §12, §13, §14, §15

OVCAR-5 = details: Homo sapiens; OVCAR-5, Ovarian cancer
Procedure: as §1, §2, §3, §4, §5, §6, §7, §8, §9, §10, §11, §12, §13, §14, §15

OVCAR-8 = details: Homo sapiens; OVCAR-8, Ovarian cancer
Procedure: as §1, §2, §3, §4, §5, §6, §7, §8, §9, §10, §11, §12, §13, §14, §15

RPMI-8226 = details: Homo sapiens; RPMI-8226, Leukemia
Procedure: as §1, §2, §3, §4, §5, §6, §7, §8, §9, §10, §11, §12, §13, §14, §15

SK-OV-3 = details: Homo sapiens; SK-OV-3, Ovarian cancer
Procedure: as §1, §2, §3, §4, §5, §6, §7, §8, §9, §10, §11, §12, §13, §14, §15

TK-10 = details: Homo sapiens; TK-10, Renal cancer
Procedure: as §1, §2, §3, §4, §5, §6, §7, §8, §9, §10, §11, §12, §13, §14, §15

UACC-257 = details: Homo sapiens; UACC-257, Melanoma
Procedure: as §1, §2, §3, §4, §5, §6, §7, §8, §9, §10, §11, §12, §13, §14, §15

UO-31 = details: Homo sapiens; UO-31, Renal cancer
Procedure: as §1, §2, §3, §4, §5, §6, §7, §8, §9, §10, §11, §12, §13, §14, §15

SMILES	GI50 (A549/ATCC)	GI50 (HCC-2998)	GI50 (HCT-116)	GI50 (HOP-62)	GI50 (KM12)	GI50 (LOX IMVI)	GI50 (MCF7)	GI50 (MDA-MB-435)	GI50 (NCI-H226)	GI50 (NCI-H23)	GI50 (NCI-H522)	GI50 (OVCAR-5)	GI50 (OVCAR-8)	GI50 (RPMI-8226)	GI50 (SK-OV-3)	GI50 (TK-10)	GI50 (UACC-257)	GI50 (UO-31)
COC(=O)COc1ccc(C=NNC(=O)Cn2c(-c3ccc(OC)cc3)nc3cc(Cl)c(Cl)cc32)cc1 [Compound 10h, Methyl-2-(4-((2-(2-(5,6-dichloro-2-(4-methoxyphenyl)-1H-benzo[d]imidazol-1-yl)acetyl)hydrazono)methyl)phenoxy)acetate]	> 82.5 µM	13.1 µM	68 µM	17.3 µM	> 82.5 µM	6.83 µM	4.25 µM	14.8 µM	> 82.5 µM	> 82.5 µM	14.7 µM	34.3 µM	2.93 µM	71.2 µM	19.1 µM	13.2 µM	12.7 µM	9.74 µM
COC(=O)COc1cc(C=NNC(=O)Cn2c(-c3ccc(OC)cc3)nc3cc(Cl)c(Cl)cc32)ccc1OC [Compound 10o, Methyl-2-(5-((2-(2-(5,6-dichloro-2-(4-methoxyphenyl)-1H-benzo[d]imidazol-1-yl)acetyl)hydrazono)methyl)-2-methoxyphenoxy)acetate]	> 100 µM	13.4 µM	> 100 µM	> 100 µM	> 100 µM	> 100 µM	100 µM	> 100 µM	> 100 µM	> 100 µM	> 100 µM	> 100 µM	8.68 µM	> 100 µM	26 µM	18.3 µM	38.7 µM	1.82 µM
COC(=O)COc1ccc(C=NNC(=O)Cn2c(-c3ccc(OC)cc3)nc3cc(Cl)c(Cl)cc32)cc1OC [Compound 10p, Methyl-2-(4-((2-(2-(5,6-dichloro-2-(4-methoxyphenyl)-1H-benzo[d]imidazol-1-yl)acetyl)hydrazono)methyl)-2-methoxyphenoxy)acetate]	> 72.5 µM	11.7 µM	> 72.5 µM	> 72.5 µM	> 72.5 µM	31.2 µM	> 72.5 µM	22.9 µM	> 72.5 µM	> 72.5 µM	> 72.5 µM	24 µM	2.54 µM	> 72.5 µM	16 µM	12.6 µM	14.7 µM	8.11 µM
